Measurements reported in patent publication US6630431B2, “Nail polish lacquer remover” (Board of Trustees of Michigan State University, priority 2001, dated 2003).

How the values were obtained:
[1] = animals; cited from earlier work
Vapor pressure = format: physicochemical; conditions: @ 20° C.
Protocol: The vapor pressure of ethyl lactate is 1.6 mmHg @ 20° C. and for diethyl succinate is 0.2 mmHg @ 20° C. These are very favorable for a nail polish removing lacquer.

| SMILES | LD50 data [1] | vapor pressure (Vapor pressure) |
| --- | --- | --- |
| CCOC(=O)C(C)O (stereo not shown) [ethyl lactate] | very large doses are required to produce toxic results | 1.6 mmHg |
| CCOC(=O)CCC(=O)OCC [diethyl succinate] | very large doses are required to produce toxic results | 0.2 mmHg |
